One may read the Ki as the dissociation constant of the complex between target and ligand, obtained from inhibition or displacement. By inhibition is commonly meant the relative decrease from the control value, in per cent. The low end stands for little suppression, the high end for strong suppression. A word on the clearance: it is the volume of plasma or blood freed of the substance per unit of time. Low values mean a low capacity for elimination, high ones a high capacity for elimination. In general, Cmax refers to the peak of the concentration-time curve. The term bioavailability denotes the share of a dose that reaches the circulation, judged against a reference dose that is usually intravenous. The low end stands for little systemic uptake, the high end for much systemic uptake.

The results in this text go back to ChEMBL document CHEMBL1145380, “Optimization of 1,3,4-benzotriazepine-based CCK(2) antagonists to obtain potent, orally active inhibitors of gastrin-mediated gastric acid secretion” (J Med Chem, 2007).

Data set [1] concerns the target T1, Cholecystokinin receptor type A (Homo sapiens, UniProt P32238).
T1 sequence (P32238 whole entry): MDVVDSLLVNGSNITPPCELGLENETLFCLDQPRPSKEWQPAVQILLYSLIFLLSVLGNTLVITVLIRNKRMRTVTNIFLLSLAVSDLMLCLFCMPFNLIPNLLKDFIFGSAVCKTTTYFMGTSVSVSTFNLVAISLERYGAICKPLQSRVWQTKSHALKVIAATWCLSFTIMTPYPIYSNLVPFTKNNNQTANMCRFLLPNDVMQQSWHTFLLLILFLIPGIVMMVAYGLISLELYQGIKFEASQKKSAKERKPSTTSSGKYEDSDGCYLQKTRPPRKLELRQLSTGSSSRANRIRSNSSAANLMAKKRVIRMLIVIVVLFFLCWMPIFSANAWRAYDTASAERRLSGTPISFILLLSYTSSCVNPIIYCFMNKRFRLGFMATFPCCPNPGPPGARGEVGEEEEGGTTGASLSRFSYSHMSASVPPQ
The data set is described as follows: Displacement of [3H]L-364718 from human recombinant CCK1 receptor expressed in CHOK1 cells. Format: cell-based, CHO-K1.

The target of data set [2] is T2, Gastrin/cholecystokinin type B receptor (Canis lupus familiaris, UniProt P30552).
T2 sequence (P30552 whole entry): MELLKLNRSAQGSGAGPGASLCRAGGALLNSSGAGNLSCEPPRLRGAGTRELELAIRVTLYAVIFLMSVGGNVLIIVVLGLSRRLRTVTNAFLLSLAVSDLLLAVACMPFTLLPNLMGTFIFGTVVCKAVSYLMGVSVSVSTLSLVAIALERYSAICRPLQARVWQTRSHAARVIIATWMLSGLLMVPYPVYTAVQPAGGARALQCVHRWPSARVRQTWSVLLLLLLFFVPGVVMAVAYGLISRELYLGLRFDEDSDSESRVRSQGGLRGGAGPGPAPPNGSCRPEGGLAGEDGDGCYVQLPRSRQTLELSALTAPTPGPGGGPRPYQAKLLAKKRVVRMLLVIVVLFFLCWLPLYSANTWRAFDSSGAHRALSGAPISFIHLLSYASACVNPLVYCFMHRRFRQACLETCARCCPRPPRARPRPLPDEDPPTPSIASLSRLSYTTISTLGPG
The data set is described as follows: Displacement of [125I]BH-[…] from CCK2 receptor in canine gastric mucosa. Format: tissue-based.

Data set [3] has as its target T3, Gastrin/cholecystokinin type B receptor (Canis lupus familiaris) (UniProt P30552).
T3 sequence (whole entry): T2 sequence (P30552 whole entry)
Nature of the data set: Inhibition of pentagastrin-stimulated gastric acid secretion in intragastrically dosed conscious gastric fistula dog. In kind it is functional, organism-based. The settings on record: Stomach.

The target in data set [4] is T4, Gastrin/cholecystokinin type B receptor (Homo sapiens, UniProt P32239).
T4 sequence (P32239 whole entry): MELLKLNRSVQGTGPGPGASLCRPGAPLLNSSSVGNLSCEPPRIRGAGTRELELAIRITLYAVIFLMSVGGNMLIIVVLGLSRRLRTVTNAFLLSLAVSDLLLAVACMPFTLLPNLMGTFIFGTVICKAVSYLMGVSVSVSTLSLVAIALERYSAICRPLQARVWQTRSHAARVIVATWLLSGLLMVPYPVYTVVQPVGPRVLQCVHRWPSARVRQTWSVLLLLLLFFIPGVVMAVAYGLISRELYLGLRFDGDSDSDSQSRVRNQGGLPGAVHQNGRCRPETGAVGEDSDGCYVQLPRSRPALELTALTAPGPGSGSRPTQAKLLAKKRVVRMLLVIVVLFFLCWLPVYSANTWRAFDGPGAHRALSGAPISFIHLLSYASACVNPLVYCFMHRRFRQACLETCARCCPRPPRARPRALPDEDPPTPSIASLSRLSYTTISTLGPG
Nature of the data set: Displacement of [125I]BH-CCK-8S from human recombinant CCK2 receptor expressed in NIH3T3 cells.

The target of data set [5] is T1, Cholecystokinin receptor type A. Nature of the data set: Displacement of [3H]L-364718 from human recombinant CCK1 receptor expressed in PC3 cells. In kind it is cell-based, PC-3. Background: Loss of bound radioactivity is the signal in a displacement assay; it reports binding, not function.
Data set [6] deals with T5, Gastrin/cholecystokinin type B receptor (Rattus norvegicus, UniProt P30553).
T5 sequence (P30553 whole entry): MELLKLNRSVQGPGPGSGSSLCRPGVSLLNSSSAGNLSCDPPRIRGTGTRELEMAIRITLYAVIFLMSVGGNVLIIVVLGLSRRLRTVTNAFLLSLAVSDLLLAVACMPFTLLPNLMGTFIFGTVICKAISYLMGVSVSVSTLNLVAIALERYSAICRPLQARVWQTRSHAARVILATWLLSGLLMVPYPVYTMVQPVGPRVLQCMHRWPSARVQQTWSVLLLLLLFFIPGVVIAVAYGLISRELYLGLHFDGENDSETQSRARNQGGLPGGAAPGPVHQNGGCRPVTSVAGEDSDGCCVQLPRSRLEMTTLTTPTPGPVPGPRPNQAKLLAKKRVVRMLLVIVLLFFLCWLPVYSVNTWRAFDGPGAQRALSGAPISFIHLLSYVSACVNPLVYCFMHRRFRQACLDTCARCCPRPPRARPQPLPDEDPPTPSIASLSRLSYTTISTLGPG
The data set is described as follows: Antagonist activity at CCK2 receptor in perfused rat stomach assessed as inhibition of pentagastrin-stimulated gastric acid secretion. In kind it is functional, tissue-based. The following applies: read-out: pA2 (converted).

In data set [7] the target is T3, Gastrin/cholecystokinin type B receptor (Canis lupus familiaris). Nature of the data set: Inhibition of pentagastrin-stimulated gastric acid secretion in iv dosed conscious gastric fistula dog. Format: functional, organism-based. The following applies: Stomach.
The target of data set [8] is T4, Gastrin/cholecystokinin type B receptor. The data set is described as follows: Displacement of […] from human recombinant CCK2 receptor expressed in NIH3T3 cells. In kind it is cell-based.
Data set [9] deals with T3, Gastrin/cholecystokinin type B receptor (Canis lupus familiaris). Nature of the data set: Inhibition of pentagastrin-stimulated gastric acid secretion in intraduodenal bolus dosed conscious dual gastric fistula dog. Format: functional, organism-based. The following applies: Stomach.
Data set [10] has the same target. Nature of the data set: Inhibition of pentagastrin-stimulated gastric acid secretion in conscious gastric fistula dog at 1 mg/kg, iv. In kind it is functional, organism-based. On the set-up: dose 1 mg/kg. The following applies: Stomach.
For data set [11] the target is unchanged. The data set is described as follows: Inhibition of pentagastrin-stimulated gastric acid secretion in conscious gastric fistula dog at 0.05 mg/kg, iv. In kind it is functional, organism-based. Further details: dose 0.05 mg/kg. The settings on record: Stomach.
Data set [12] is described as follows: Volume of distribution at steady state in dog at 2.5 mg/kg, iv. The settings on record: in vivo, read-out: Vdss. In kind it is ADME, organism-based, Canis lupus familiaris. Further details: dose 2.5 mg/kg, route intravenous.
Data set [13] can be described thus: Plasma clearance in dog at 2.5 mg/kg, iv. Format: ADME, organism-based, Canis lupus familiaris. Further details: dose 2.5 mg/kg, route intravenous.
Data set [14] can be described thus: Cmax in po dosed dog. In kind it is ADME, organism-based, Canis lupus familiaris. Further details: route oral. The settings on record: in vivo.
Data set [15] in a line: Bioavailability in po dosed dog. Format: ADME, organism-based, Canis lupus familiaris. The following applies: in vivo.
A short description of data set [16]: Half life beta in po dosed dog. Format: ADME, organism-based, Canis lupus familiaris. The settings on record: in vivo, read-out: beta t1/2 (converted).

On to `CC(C)(C)C(=O)CN1C(=O)N(CC(=O)Nc2cccc(-c3nc(=O)o[nH]3)c2)N=C(C2CCCCC2)c2ccccc21`, for which the Ki in data set [1] is 589 nM; in data set [2], 4.47 nM; in data set [4], 0.2 nM. In addition, in data set [3], the Activity entry is “Dose-dependent effect”.

With `CC(C)(C)C(=O)CN1C(=O)N(CC(=O)Nc2cccc(CC(=O)O)c2)N=C(C2CCCCC2)c2ccccc21`, the figures for the Ki in data set [5], in data set [2] and in data set [4] were greater than 10000 nM, 5.25 nM and 2.14 nM, respectively. Besides, the Kb in data set [6] was 9.77 nM. Moreover, the Activity result in data set [7] is “Dose-dependent effect”.

`CC(C)CC1=NN(CC(=O)Nc2cccc(C(=O)O)c2)C(=O)N(CC(=O)C(C)(C)C)c2ccccc21`: the Ki in [8] is 89.1 nM; in [5] it was 7080 nM.

Take `CC(C)(C)C(=O)CN1C(=O)N(CC(=O)Nc2cccc(SCC(=O)O)c2)N=C(C2CCCCC2)c2ccccc21`: the Ki is 646 nM in data set [5], 5.75 nM in data set [2] and 0.646 nM in data set [4]. The Kb in data set [6] is 2.75 nM.

As to `O=C(CN1N=C(C2CCCCC2)c2ccccc2N(CC(=O)C2CCCC2)C1=O)Nc1cccc(-c2noc(=O)[nH]2)c1`, the ID50 was less than 0.03 mg/kg in data set [7] and 0.016 mg/kg in data set [3]. Further, the Activity result in data set [9] was “Dose-dependent effect”.

For the compound `CNc1cccc(NC(=O)N[C@@H]2N=C(c3ccccn3)c3ccccc3N(CC(=O)C(C)(C)C)C2=O)c1` [NETAZEPIDE], the Ki in data set [1] is 28.8 nM. Moreover, the inhibition in data set [10] was determined as 66%; in data set [11], 97%.

As to `O=C(CN1N=C(C2CCCCC2)c2ccccc2N(CC(=O)C2CCCC2)C1=O)Nc1cccc(C(=O)O)c1`, the Ki in data set [5] was greater than 10000 nM; in [2], 7.08 nM; in data set [4], 1 nM. Moreover, in data set [6], the Kb was 1.95 nM.

For `CC1(C(=O)CN2C(=O)N(CC(=O)Nc3cccc(C(=O)O)c3)N=C(C3CCCCC3)c3ccccc32)CCCC1`, the results for the Ki in data set [8] and in data set [1] were 1.2 nM and 3980 nM, respectively.

With `O=C(O)c1cccc(NC(=O)c2nc(C3CCCCC3)[nH]c2COC23CC4CC(CC(C4)C2)C3)c1`, the Ki is greater than 10000 nM in [5] and 19.5 nM in [4]. In addition, the inhibition in data set [10] stood at 66%; in data set [11], 97%.

With `O=C(CN1N=C(C2CCCCC2)c2ccccc2N(CC(=O)C2CCCC2)C1=O)Nc1cccc(-c2nc(=O)o[nH]2)c1`, the Ki was 468 nM in data set [1], 4.47 nM in data set [2] and 0.107 nM in data set [4]. Further, in [6], the Kb is 1.82 nM. Moreover, the Vd in data set [12] came to 0.13 L/kg. In addition, the clearance in data set [13] is 3.33 mL/min/kg. Also, the Cmax in data set [14] is 15 µM. In addition, the bioavailability in [15] came to 41%. Also, in [16], the half-life is 4.1 h.
